# Tests used:
# Assay type in all cases: in vivo
# [1] = test system: lambsquarters (Chenopodium album); test: Test C plant response; details: Postemergence, scale 0 to 100
# Text: (§1) Seeds of plant species selected from bluegrass (annual bluegrass, Poa annua), blackgrass (Alopecurus myosuroides), canarygrass (Phalaris minor), chickweed (common chickweed, Stellaria media), galium (catchweed bedstraw, Galium aparine), bromegrass (downy bromegrass, Bromus tectorum), field poppy (Papaver rhoeas), field violet (Viola arvensis), green foxtail (Setaria viridis), deadnettle (henbit deadnettle, Lamium amplexicaule), Italian ryegrass (Lolium multiflorum), kochia (Kochia scoparia), lambsquarters (Chenopodium album), oilseed rape (Brassica napus), pigweed (Amaranthus retroflexus), Russian thistle (Salsola iberica), spring barley (Hordeum vulgare), spring wheat (Triticum aestivum), buckwheat (wild buckwheat, Polygonum convolvulus), wild mustard (Sinapis arvensis), wild oat (Avena fatua), wild radish (Raphanus raphanistrum), windgrass (Apera spica-venti), winter barley (Hordeum vulgare), and winter wheat (Triticum aestivum) were planted and treated postemergence with test chemicals formulated in a non-phytotoxic solvent mixture which included a surfactant. Plants ranged in height from 2 to 18 cm (1- to 4-leaf stage).
# (§2) Treated plants and controls were maintained in a controlled growth environment for 14 days after which time all test plants were visually evaluated and compared to controls. Plant response ratings, summarized in Table C, are based on a scale of 0 to 100 where 0 is no effect and 100 is complete control. A dash (-) response means no test result.
# [2] = test system: pigweed (Amaranthus retroflexus); test: Test C plant response; details: Postemergence, scale 0 to 100
# Text: as §1, §2
# [3] = test system: green foxtail (Setaria viridis); test: Test D pre-/postemergence plant response
# Method in brief: (§3)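 Ratings come from greenhouse-grown weeds in loam and sand treated pre- or postemergence (postemergence height 2 to 18 cm). Evaluation after 14–21 days, visual, relative to controls, on a 0–100 control scale.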
# [4] = test system: kochia (Kochia scoparia); test: Test D pre-/postemergence plant response
# Method in brief: as §3
# [5] = test system: sowthistle (common sowthistle, Sonchus oleraceous); test: Test D pre-/postemergence plant response
# Method in brief: as §3
# [6] = test system: naked crabgrass (Digitaria nuda); test: Test D pre-/postemergence plant response
# Method in brief: as §3
# [7] = test system: spanishneedles (Bidens bipinnata); test: Test D pre-/postemergence plant response
# Method in brief: as §3
# [8] = Postemergence, 31 g ai/ha, scale 0 to 100
# [9] = Postemergence, 62 g ai/ha, scale 0 to 100 (0 no effect, 100 complete control)
# [10] = Postemergence, 125 g ai/ha, scale 0 to 100 (0 no effect, 100 complete control)
# [11] = Postemergence, 16 g ai/ha, scale 0 to 100
# [12] = Preemergence, 16 g ai/ha, scale 0 to 100, 0 no effect, 100 complete control
# [13] = Preemergence, 31 g ai/ha, scale 0 to 100 (0 no effect, 100 complete control)
# [14] = Preemergence, 62 g ai/ha, scale 0 to 100
# [15] = Preemergence, 125 g ai/ha, scale 0 to 100
compound,measurement,setting,value
3-cyclohexyl-5-[(2-hydroxy-6-oxo-1-cyclohexen-1-yl)carbonyl]-2-phenyl-4(3H)-pyrimidinone [Compound 128],Plant response rating: Lambsquarters,[1]; 31 g ai/ha,98
same,Plant response rating: Lambsquarters,[1]; 16 g ai/ha,98
same,Plant response rating: Lambsquarters,[1]; 62 g ai/ha,98
same,Plant response rating: Lambsquarters,[1]; 125 g ai/ha,100
same,Plant response rating: Pigweed,[2]; 31 g ai/ha,95
same,Plant response rating: Pigweed,[2]; 16 g ai/ha,75
same,Plant response rating: Pigweed,[2]; 62 g ai/ha,95
same,Plant response rating: Pigweed,[2]; 125 g ai/ha,98
"COc1ccc(-n2c(-c3ccccc3)ncc(C(=O)C3=C(O)CCCC3=O)c2=O)cc1 [Compound 4, 5-[(2-hydroxy-6-oxo-cyclohexen-1-yl)carbonyl]-3-(4-methoxyphenyl)-2-phenyl-4(3H)-pyrimidinone]",Plant response rating: Lambsquarters,[1]; 31 g ai/ha,100
same,Plant response rating: Lambsquarters,[1]; 125 g ai/ha,100
same,Plant response rating: Pigweed,[2]; 31 g ai/ha,95
same,Plant response rating: Pigweed,[2]; 125 g ai/ha,100
Cc1ccc(-n2c(-c3ccccc3)ncc(C(=O)C3=C(O)CCCC3=O)c2=O)cc1 [Compound 8],Plant response rating: Lambsquarters,[1]; 31 g ai/ha,98
same,Plant response rating: Lambsquarters,[1]; 16 g ai/ha,98
same,Plant response rating: Lambsquarters,[1]; 62 g ai/ha,98
same,Plant response rating: Lambsquarters,[1]; 125 g ai/ha,100
same,Plant response rating: Pigweed,[2]; 31 g ai/ha,95
same,Plant response rating: Pigweed,[2]; 16 g ai/ha,95
same,Plant response rating: Pigweed,[2]; 62 g ai/ha,98
same,Plant response rating: Pigweed,[2]; 125 g ai/ha,98
Cc1ccccc1-n1c(-c2ccccc2)ncc(C(=O)C2=C(O)CCCC2=O)c1=O [Compound 12],Plant response rating: Lambsquarters,[1]; 31 g ai/ha,80
same,Plant response rating: Lambsquarters,[1]; 16 g ai/ha,70
same,Plant response rating: Lambsquarters,[1]; 62 g ai/ha,80
same,Plant response rating: Lambsquarters,[1]; 125 g ai/ha,95
same,Plant response rating: Pigweed,[2]; 31 g ai/ha,65
same,Plant response rating: Pigweed,[2]; 16 g ai/ha,65
same,Plant response rating: Pigweed,[2]; 62 g ai/ha,75
same,Plant response rating: Pigweed,[2]; 125 g ai/ha,75
O=C1CCCC(O)=C1C(=O)c1cnc(-c2ccccc2)n(CC2CCCO2)c1=O (centres unmarked) [Compound 59],"Plant response rating, Foxtail, Green",[3]; [8],5
same,"Plant response rating, Foxtail, Green",[3]; [9],20
same,"Plant response rating, Foxtail, Green",[3]; [10],35
same,"Plant response rating, Foxtail, Green",[3]; [11],0
same,"Plant response rating, Foxtail, Green",[3]; [12],0
same,"Plant response rating, Foxtail, Green",[3]; [13],0
same,"Plant response rating, Foxtail, Green",[3]; [14],0
same,"Plant response rating, Foxtail, Green",[3]; [15],0
same,"Plant response rating, Kochia",[4]; [8],5
same,"Plant response rating, Kochia",[4]; [9],20
same,"Plant response rating, Kochia",[4]; [10],50
same,"Plant response rating, Kochia",[4]; [11],5
same,"Plant response rating, Kochia",[4]; [12],0
same,"Plant response rating, Kochia",[4]; [13],0
same,"Plant response rating, Kochia",[4]; [14],0
same,"Plant response rating, Kochia",[4]; [15],0
same,"Plant response rating, Sowthistle",[5]; [8],100
same,"Plant response rating, Sowthistle",[5]; [9],100
same,"Plant response rating, Sowthistle",[5]; [10],100
same,"Plant response rating, Sowthistle",[5]; [11],70
same,"Plant response rating, Sowthistle",[5]; [12],0
same,"Plant response rating, Sowthistle",[5]; [13],95
same,"Plant response rating, Sowthistle",[5]; [15],100
same,"Plant response rating, Crabgrass, Naked",[6]; [8],30
same,"Plant response rating, Crabgrass, Naked",[6]; [9],50
same,"Plant response rating, Crabgrass, Naked",[6]; [10],70
same,"Plant response rating, Crabgrass, Naked",[6]; [11],20
same,"Plant response rating, Crabgrass, Naked",[6]; [12],0
same,"Plant response rating, Crabgrass, Naked",[6]; [13],0
same,"Plant response rating, Crabgrass, Naked",[6]; [14],65
same,"Plant response rating, Crabgrass, Naked",[6]; [15],95
same,"Plant response rating, Spanishneedles",[7]; [8],50
same,"Plant response rating, Spanishneedles",[7]; [9],70
same,"Plant response rating, Spanishneedles",[7]; [10],70
same,"Plant response rating, Spanishneedles",[7]; [11],30
same,"Plant response rating, Spanishneedles",[7]; [12],0
same,"Plant response rating, Spanishneedles",[7]; [13],0
same,"Plant response rating, Spanishneedles",[7]; [15],90
COCCn1c(-c2ccccc2)ncc(C(=O)C2=C(O)CCCC2=O)c1=O [Compound 85],"Plant response rating, Foxtail, Green",[3]; [8],25
same,"Plant response rating, Foxtail, Green",[3]; [9],35
same,"Plant response rating, Foxtail, Green",[3]; [10],65
same,"Plant response rating, Foxtail, Green",[3]; [11],20
same,"Plant response rating, Foxtail, Green",[3]; [12],0
same,"Plant response rating, Foxtail, Green",[3]; [13],5
same,"Plant response rating, Foxtail, Green",[3]; [14],40
same,"Plant response rating, Foxtail, Green",[3]; [15],70
same,"Plant response rating, Kochia",[4]; [8],10
same,"Plant response rating, Kochia",[4]; [9],20
same,"Plant response rating, Kochia",[4]; [10],60
same,"Plant response rating, Kochia",[4]; [11],0
same,"Plant response rating, Kochia",[4]; [12],5
same,"Plant response rating, Kochia",[4]; [13],20
same,"Plant response rating, Kochia",[4]; [14],75
same,"Plant response rating, Kochia",[4]; [15],95
same,"Plant response rating, Sowthistle",[5]; [8],100
same,"Plant response rating, Sowthistle",[5]; [9],100
same,"Plant response rating, Sowthistle",[5]; [10],100
same,"Plant response rating, Sowthistle",[5]; [11],100
same,"Plant response rating, Sowthistle",[5]; [12],100
same,"Plant response rating, Sowthistle",[5]; [13],100
same,"Plant response rating, Sowthistle",[5]; [15],100
same,"Plant response rating, Crabgrass, Naked",[6]; [8],50
same,"Plant response rating, Crabgrass, Naked",[6]; [9],75
same,"Plant response rating, Crabgrass, Naked",[6]; [10],80
same,"Plant response rating, Crabgrass, Naked",[6]; [12],0
same,"Plant response rating, Crabgrass, Naked",[6]; [13],95
same,"Plant response rating, Crabgrass, Naked",[6]; [14],95
same,"Plant response rating, Crabgrass, Naked",[6]; [15],98
same,"Plant response rating, Spanishneedles",[7]; [8],75
same,"Plant response rating, Spanishneedles",[7]; [9],90
same,"Plant response rating, Spanishneedles",[7]; [10],95
same,"Plant response rating, Spanishneedles",[7]; [11],75
same,"Plant response rating, Spanishneedles",[7]; [12],90
same,"Plant response rating, Spanishneedles",[7]; [13],98
same,"Plant response rating, Spanishneedles",[7]; [15],100
same,"Plant response rating, Spanishneedles","[7]; Preemergence, rate not given, scale 0 to 100, 0 no effect, 100 complete control",98

# Reference: patent publication US8952024B2, “Herbicidal pyrimidone derivatives” (E I du Pont de Nemours and Company, priority 2009, dated 2015)
